Data: US8367645B2, “Compositions and methods for treating hyperproliferative diseases” (priority 2008, dated 2013)
Marks after values point to notes of the source that are not given here.

Tests used:
[1] = test system: transplanted human hepatoma (Hep G2 cells); assay: Volume of transplanted human hepatoma (Hep G2) in hairless mice; type: in vivo
Protocol: The procedures for performing this test were as follows. Hep G2 cells were prepared at 25*10^6 cells/ml and 0.2 ml of the cell suspension (5*10^6 cells) was injected in an exposed mouse mammary fat pad. When tumors achieved the required size (0.5 cm^3), animals would be treated with 50 μl of B10, dehydrated alcohol or 10% glucose solution once daily for 6 days. During 12 days after the last injection, tumor volume will be assessed by measuring tumor dimensions (long (L) and short (S)) and estimated it as V=0.52*L*S^2. 12 days after the last injection, mice would be sacrificed and tumors would be dissected, weighed and stored in a formaline solution for further evaluation.).

[2] = test system: B16 (mice melanoma cells); conditions: metformin 5 mM alone or in combination
Protocol: Each of the cell samples were then tested in a flow cytometer. The testing methodology and equipment used are set forth as follows. Cells were harvested and washed twice with phosphate buffered saline, (PBS) and fixed in 70% cold ethanol at 4° C. overnight. Before analysis, cells were washed twice with PBS, containing 1% bovine serum albumin (BSA), then resuspended with 400 μl PBS and treated with 100 μg/ml RNase A (Roche Diagnostics) and 50 μg/ml propidium iodide (PI) (Sigma). After incubation for 30 min at 37° C., the cells were subjected to DNA content analysis. propidium iodide, (PI) fluorescence was analyzed with a FACS calibur flowcytometer, (Becton Dickinson). Data from at least 10,000 cells were analyzed with software.
In Example 5, Metformin 5 mM; Metformin 5 mM+aspirin 2 mM; and Metformin 5 mM+aspirin 2 mM+serotonin creatinine sulfate complex 0.001 mM were tested to determine the effect on cell cycle on B16 (mice melanoma cells) during the G1, S and G2 cell phases. The procedure for testing using the flow cytometer was carried out as set forth in Example 1 above.

Row | Structure (SMILES) | rate of elimination of hepatoma volume [1] [%] | Volume After Treatment ([1]; Hep G2 tumor, 50 μl once daily for 6 days, 10% G.S. 444 ± 199) | Volume Before Treatment ([1]; Hep G2 tumor, before treatment) | Volume Changes ([1]; Hep G2 tumor, ↓ = decrease, 10% G.S. ↑158%) | S ([2]; control 12.8) | G2 ([2]; control 23.1) | G1 ([2]; control 64)
1 | CCO [Dehydration ethanol] | 52.7 | 89 ± 120** | 188 ± 119 | ↓52.7% |  |  | 
2 | CN(C)C(=N)N=C(N)N [Metformin] |  |  |  |  | 4.6 | 23.6 | 71.8
